# Source: patent US20180171321A1, “PLATFORM FOR A NON-NATURAL AMINO ACID INCORPORATION INTO PROTEINS” (THE UNIVERSITY OF QUEENSLAND, priority 2015, published 2018)
# “Also recorded” adds a separate entry of the source.
# B1: KL: RNA aptamer binding the anticodon loop of tRNA(Ser)GCU; SEQ ID NO:7 (nucleic acid)
# chain: GGTAGTGAGGTAGTTAGCAGATACCTCACTACCAACACACACACAACACACACACAACACACAAGCT
# modifications: “kissing loop” coding sequence with linker
# B2: MjY4: MjY tRNA with six mutations described in a later report (nucleic acid)
# DNA: CCGGCGGTAGTTCAGCAGGGCAGAACGGCGGACTCTAAATCCGCATGGCAGGGGTTCAAATCCCCTCCGCCGGACCA
# modifications: RNA, all phosphodiester, T or U not given here
# notes: MjY tRNA with six mutations described in a later report
# How the values were obtained:
# [1] = test system: AGG codon in GFP ORFs; assay: AGG reassignment to AzF in cell-free system depleted of tRNA species decoding AGG; format: biochemical, E. coli; details: all four templates
# Description: FIG. 23. AGG reassignment to AzF in the context of four GFP ORFs. The GFP protein was expressed in cell-free system depleted of tRNA species decoding AGG codon with and without addition of MjY suppression system (MjY2/AzFRS). The final concentrations for MjY2, AzFRS, AzF are were 10 μM, 10 μM and 1 mM, respectively. The anticodon in MjY2 was changed to CCU in order to reassign AGG codon to AzF.
# The tRNA-depleted lysate is prepared as described by ethanolamine-sepharose affinity chromatography^24. DNA templates with two GFP ORFs: one of optimized codon composition for eGFP (Template A) and the other of simplified codon composition for sGFP (Template B), were used. Mutations to amber or AGG-codon were introduced either by synthesizing the whole gene fragments as gBlocks by IDT to change all the 6 Arg codons to AGG simultaneously or using PCR with the proper primers to introduce mutations with less than 3 nucleotides at the same position. […] The sequence information of all the open reading frames used here is provided in SI.
# The cell-free translation reactions for GFP production were performed following the standard protocol^60 with the optimized Mg^2+ at 10 mM concentration. […] GFP production was monitored on a fluorescence plate reader (Synergy) at 30° C. for 3-5 h at 485 nm excitation and 528 nm emission wavelengths. […]
# [2] = test system: amber codon in A_151X template; assay: Amber suppression by flexizyme-precharged nnAA-tRNA, A_151X template; format: biochemical, E. coli; details: five nnAAs; precharged tRNA 10, 20 or 30 uM
# Source text: FIG. 29. The incorporation efficiency of 5 nnAAs precharged by flexizyme with their respective active group. A: The structure of five activated acid substrates for tRNA acylation by Flexizyme, including L-Propargylglycine 4-chlorobenzyl thioester (Pra-CBT), L-Azidolysine 4-chlorobenzyl thioester (Lys(N3)-CBT), L-Azidohomoalanine 4-chlorobenzyl thioester (Aha-CBT), NE-biotinyl-L-lysine 3,5-dinitrobenzyl ester (Lys(biotin)-DBN) and L-Azidophenylalanine-cyanomethyl ester (AzF-CME). The nnAAs are shown in black while their respective active groups in red. B: The amber suppression efficiency of 5 nnAAs precharged tRNA tested by using A_151X template in the cell free translation system. The precharged tRNA was used to prime the translational reactions at 10, 20 or 30 uM of final tRNA concentration. The flexizyme reaction time and the final concentration of precharged nnAA-tRNAs were indicated.
# C-terminal Cys were added into sequence of the affinity clamp protein (pdz-fibronectin Fusion Protein, PDB: 3CH8_A). The purified protein with C-terminal Cys was immobilized on Iodoacetyl Gel (UltraLink®) using manufacture's protocol. tRNA charging by flexizyme for amber suppression: The acylation reaction were performed as described before^62. 1 volume of 250 μM o-tRNA was mixed with the same volume of 50 μM Fx ([…]) and 3 volume of water. […]
# [3] = test system: amber codon (UAG) in GFP templates; assay: Amber codon suppression in E. coli cell-free translation system (GFP fluorescence); format: biochemical
# Source text: FIG. 22. Comparative analysis of amber codon suppression efficiencies in E. coli cell-free translation system with different nnAA/o-tRNA/aaRS combinations. A: The structure of nnAAs used here. B-D: Suppression Amber suppression of A_151X template. The suppression efficiency is defined as a ratio compared to the fluorescence of percentage of wild type eGFP fluorescence wild type eGFP without stop codon inside its ORF. B: Incorporation of four nnAAs by three PylRS variants. The final concentrations of PylTcua, PylRS variants and nnAAs were 20 μM, 20 μM and 1 mM, respectively. C: AzF incorporation by four MjY tRNA variants. MjY1, MjY2, MjY3 and MjY4 are corresponding to the tRNAs pAzPhe1, pAzPhe2, pAzPhe3 and tRNAopt CUA in original publication^35,37. The final concentrations of MjYtRNA variants, AzFRS and AzF are 10 μM, 10 μM and 1 mM, respectively. D: Effect of o-tRNA and o-aaRS concentrations on amber codon suppression efficiency of MjY2/AzFRS/AzF and PylT/PylRSAF/PrK. E: The effect of codon contexts on nnAA incorporation efficiency in two orthogonal systems. The concentration of MjY2 and AzFRS were 10 μM for both while PylT and PylRS were used at 20 and 30 μM, respectively. Four templates, named A_1X, A_151X, B_1X and B_151X, were used in the analysis (sequences are shown in SI). A and B denote the template backbones with different codon biases where codon vocabulary in A is optimized for eGFP while in B it is simplified mostly utilizing the unique codon to decode each amino acid type. The numeric indicates the position of amber codon in ORF sequence. The relative activity in individual reactions is given as a percent of fluorescent intensity provided while obtained when using EctRNATyr(cua) as a suppressor.
# The tRNA-depleted lysate is prepared as described by ethanolamine-sepharose affinity chromatography^24. DNA templates with two GFP ORFs: one of optimized codon composition for eGFP (Template A) and the other of simplified codon composition for sGFP (Template B), were used. Mutations to amber or AGG-codon were introduced either by synthesizing the whole gene fragments as gBlocks by IDT to change all the 6 Arg codons to AGG simultaneously or using PCR with the proper primers to introduce mutations with less than 3 nucleotides at the same position. The obtained fragments were cloned into the pLTE or pOPINE-based plasmids following the standard Gibson assembly cloning procedure (NEB). The correct plasmids with desired mutations were purified by Midiprep Kit (Qiagen) to ensure good quality for cell free protein translation. The sequence information of all the open reading frames used here is provided in SI.
# The cell-free translation reactions for GFP production were performed following the standard protocol^60 with the optimized Mg^2+ at 10 mM concentration. 0.35 volume of depleted lysate, same as that for the standard S30 lysate, was used in the reaction. […] GFP production was monitored on a fluorescence plate reader (Synergy) at 30° C. for 3-5 h at 485 nm excitation and 528 nm emission wavelengths.
# We tested the recombinant forms of PylRS variants for their ability to support in vitro synthesis of eGFP synthesis from the template containing amber-codon at 151 position (A_151X, SI) in the presence of an evolved o-tRNA harboring U25C mutation in its anticodon stem (PylT)^14 and nnAA-substrates BCN, TCO or TCO*. Another nnAA PrK (FIG. 22A) for also used for azide-coupling known to be accommodated and charged to tRNA by wt MbPylRS30 and […], MmPylRS5, was also tested. […] Neither of these large aliphatic alkynes or alkenes could be incorporated by either of three PylRS mutants with efficiency above 5%. […] The latter confirms the promiscuity of engineered PylRS variant to various substrates reported in a comprehensive study^35
# [4] = test system: GCU Ser isoacceptor; assay: Kissing loop binding to tRNA isoacceptor; design: species or system E. coli; details: read-out: affinity
# Description: Kissing loop (KL) binds GCU Ser isoacceptor with high affinity (5-50 nM) through the formation of quasi-continuous double helix stabilized by the common stacking column between the planes of the nucleotide pairs (FIG. 16A). E. coli S30 lysate can be to a large extent depleted of total tRNA by the chromatography on ethanolamine sepharose. After the depletion lysate retains ˜60% of translational efficiency of its parental one if supplemented by commercially available total tRNA fraction (FIG. 16 B).
# [5] = A_151X template, % of wild type eGFP fluorescence, PylTcua 20 μM, PylRS variant 20 μM, nnAA 1 mM
molecule,measurement,setting,value
"[N-]=[N+]=Nc1ccc(C[C@H](N)C(=O)O)cc1 [AzF, p-azidophenylalanine]",GFP protein modified with AzF,[1],more than 80%
same,amber suppression efficiency among flexizyme-charged nnAAs,[2],best amber-codon incorporation efficiency; also recorded: highest translational activity
same,protein containing AzF (LC-MS/MS),"[3]; GFP151AzF sample, TAG codon",more than 80%
"C#CCN[C@@H](CCCCN)C(=O)O [PrK, N-Propargyl-Lysine]",incorporation with TCORS,[3]; A_151X template,essentially failed to incorporate
same,UAG suppression efficiency with BCNRS,[3]; [5],essentially failed to incorporate
same,UAG suppression efficiency with PylRSAF,[3]; [5],13%
Bicyclo [6.1.0] nonyne-Lysine [BCN],UAG suppression efficiency with BCNRS,[3]; [5],3%
same,efficiency of UAG suppression by either of three PylRS mutants,"[3]; A_151X template, BCNRS, TCORS, PylRSAF",very low
B1,Kd,[4],5 to 50 nM
B2,efficiency of MjY2 relative to the listed tRNA in AzF incorporation,"[3]; A_151X, 10 μM tRNA, 10 μM AzFRS, 1 mM AzF",slightly better
